Measurements reported in ChEMBL document CHEMBL3132826, “Investigation of a tetrahydroisoquinoline scaffold as dual-action steroid sulfatase inhibitors generated by parallel solid-phase synthesis” (Medchemcomm, 2013).

Columns and labels:
[1] = target: T1, Steryl-sulfatase (Homo sapiens) (UniProt P08842); assay: Inhibition of STS (unknown origin) expressed in HEK-293 cells assessed as transformation of [3H]-E1S into E1 at 0.1 uM by […]; format: cell-based; settings: HEK293
T1 sequence (whole entry): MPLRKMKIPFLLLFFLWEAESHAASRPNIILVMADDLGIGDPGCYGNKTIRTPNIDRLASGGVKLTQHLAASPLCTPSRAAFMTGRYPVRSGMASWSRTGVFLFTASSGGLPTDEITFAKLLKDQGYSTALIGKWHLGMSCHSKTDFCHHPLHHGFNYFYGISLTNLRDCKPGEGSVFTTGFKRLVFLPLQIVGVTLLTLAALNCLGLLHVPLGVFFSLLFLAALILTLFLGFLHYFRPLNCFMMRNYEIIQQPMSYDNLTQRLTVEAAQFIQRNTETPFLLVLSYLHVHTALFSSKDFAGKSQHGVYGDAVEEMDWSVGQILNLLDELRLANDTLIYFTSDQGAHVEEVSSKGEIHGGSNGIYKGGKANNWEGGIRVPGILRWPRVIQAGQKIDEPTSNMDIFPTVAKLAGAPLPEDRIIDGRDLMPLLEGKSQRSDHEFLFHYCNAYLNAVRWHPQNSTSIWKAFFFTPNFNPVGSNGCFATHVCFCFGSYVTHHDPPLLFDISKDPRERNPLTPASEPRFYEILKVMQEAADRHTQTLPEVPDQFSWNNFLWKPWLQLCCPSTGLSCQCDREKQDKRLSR

[2] = target: T1, Steryl-sulfatase (Homo sapiens); assay: Inhibition of STS (unknown origin) expressed in HEK-293 cells assessed as transformation of [3H]-E1S into E1 at 1 uM by […]; format: cell-based; settings: HEK293
[3] = test system: MCF7; assay: Estrogenic activity in human MCF7 cells assessed as cell proliferation at 0.1 uM by MTS assay relative to basal level; format: ADME, cell-based; settings: mcf7, 0.1 µM
[4] = test system: MCF7; assay: Estrogenic activity in human MCF7 cells assessed as cell proliferation at 1 uM by MTS assay relative to basal level; format: ADME, cell-based; settings: mcf7, 1 µM
[5] = test system: MCF7; assay: Estrogenic activity in human MCF7 cells assessed as cell proliferation at 0.01 uM by MTS assay relative to basal level; format: ADME, cell-based; settings: mcf7, 0.01 µM

inhibition [1] [%]	inhibition [2] [%]	SMILES	Activity [3] [%]	Activity [4] [%]	Activity [5] [%]
20.9	24.9	CCN(Cc1cccc(Br)c1)c1cccc(C(=O)N2CCc3ccc(OS(N)(=O)=O)cc3C2)c1			
35.7	85.2	CCN(Cc1cccnc1)c1ccc(C(=O)N2CCc3ccc(OS(N)(=O)=O)cc3C2)cc1			
		CN(C)CCCN(Cc1ccccc1)c1ccc(C(=O)N2CCc3ccc(O)cc3C2)cc1	18.3	25.9	19.4
0.3	26.8	CN(CCN1CCCCC1)c1ccc(C(=O)N2CCc3ccc(OS(N)(=O)=O)cc3C2)cc1			
		CN(CCCN1CCCCC1)c1ccc(C(=O)N2CCc3ccc(O)cc3C2)cc1	0	0	0
14.3	33.5	CCN(Cc1cccnc1)c1cccc(C(=O)N2CCc3ccc(OS(N)(=O)=O)cc3C2)c1			
2.3	39.6	NS(=O)(=O)Oc1ccc2c(c1)CN(C(=O)c1cccc(N3CCSCC3)c1)CC2			
0	28.6	CN(C)CCN(Cc1ccccc1)c1cccc(C(=O)N2CCc3ccc(OS(N)(=O)=O)cc3C2)c1			
		CC(C)CCN(CCC(C)C)c1cccc(C(=O)N2CCc3ccc(O)cc3C2)c1	0	10.6	0
		CCN(Cc1cccnc1)c1cccc(C(=O)N2CCc3ccc(O)cc3C2)c1	0	0	0
23.1	67.4	CCCN(Cc1ccccc1)c1cccc(C(=O)N2CCc3ccc(OS(N)(=O)=O)cc3C2)c1			
		CCCN(Cc1ccccc1)c1cccc(C(=O)N2CCc3ccc(O)cc3C2)c1	0	20.8	1.6
80.2	97.2	CCN(Cc1cccc(Br)c1)c1ccc(C(=O)N2CCc3ccc(OS(N)(=O)=O)cc3C2)cc1			
		CN(CCN1CCCCC1)c1cccc(C(=O)N2CCc3ccc(O)cc3C2)c1	0	5.3	0
3.8	15.9	CN(C)CCN(CCN(C)C)c1ccc(C(=O)N2CCc3ccc(OS(N)(=O)=O)cc3C2)cc1			
27.5	90.5	NS(=O)(=O)Oc1ccc2c(c1)CN(C(=O)c1cccc(N(Cc3ccccc3)Cc3ccco3)c1)CC2			
		O=C(c1cccc(N(CCCO)Cc2ccccc2)c1)N1CCc2ccc(O)cc2C1	14.2	94.2	0
1	11.9	NS(=O)(=O)Oc1ccc2c(c1)CN(C(=O)c1cccc(N3CCCCC3)c1)CC2			
		CN(C)CCN(CCN(C)C)c1cccc(C(=O)N2CCc3ccc(O)cc3C2)c1	14.6	84.1	0
26.7	32.4	NS(=O)(=O)Oc1ccc2c(c1)CN(C(=O)c1cccc(N(CCO)Cc3ccccc3)c1)CC2			
2.9	23.3	CN1CCN(c2ccc(C(=O)N3CCc4ccc(OS(N)(=O)=O)cc4C3)cc2)CC1			

inhibition [1] [%]	inhibition [2] [%]	SMILES	Activity [3] [%]	Activity [4] [%]	Activity [5] [%]
		CCN(Cc1ccccn1)c1cccc(C(=O)N2CCc3ccc(O)cc3C2)c1	58.4	87.3	10.6
14.7	41.9	NS(=O)(=O)Oc1ccc2c(c1)CN(C(=O)c1ccc(N3CCN(c4ncccn4)CC3)cc1)CC2			
47	90.8	CC(C)CCN(CCC(C)C)c1ccc(C(=O)N2CCc3ccc(OS(N)(=O)=O)cc3C2)cc1			
0	8	NS(=O)(=O)Oc1ccc2c(c1)CN(C(=O)c1cccc(N3CCC(N4CCCCC4)CC3)c1)CC2			
13.9	57.8	CN(C)CCN(Cc1ccccc1)c1ccc(C(=O)N2CCc3ccc(OS(N)(=O)=O)cc3C2)cc1			
64.8	94.3	CCCN(Cc1ccccc1)c1ccc(C(=O)N2CCc3ccc(OS(N)(=O)=O)cc3C2)cc1			
1	17	CCN(Cc1ccccc1)Cc1ccc(CN2CCc3ccc(OS(N)(=O)=O)cc3C2)cc1			
8.3	54.8	CCCN(CCC)c1cccc(C(=O)N2CCc3ccc(OS(N)(=O)=O)cc3C2)c1			
23.8	26	CN(C)CCCN(Cc1ccccc1)c1cccc(C(=O)N2CCc3ccc(OS(N)(=O)=O)cc3C2)c1			
24.1	30.6	CN(CCCN1CCCCC1)c1cccc(C(=O)N2CCc3ccc(OS(N)(=O)=O)cc3C2)c1			
33.3	52.8	CCN(Cc1ccncc1)c1cccc(C(=O)N2CCc3ccc(OS(N)(=O)=O)cc3C2)c1			
24.5	30.8	CN(CCN1CCCCC1)c1cccc(C(=O)N2CCc3ccc(OS(N)(=O)=O)cc3C2)c1			
0	23.7	NS(=O)(=O)Oc1ccc2c(c1)CN(C(=O)c1cccc(N3CCN(Cc4ccccc4)CC3)c1)CC2			
17.3	69	CCN(Cc1ccccc1)c1cccc(C(=O)N2CCc3ccc(OS(N)(=O)=O)cc3C2)c1			
0	20.9	NS(=O)(=O)Oc1ccc2c(c1)CN(C(=O)c1cccc(N3CCOCC3)c1)CC2			
24.1	50.2	NS(=O)(=O)Oc1ccc2c(c1)CN(C(=O)c1cccc(N3CCc4ccccc4C3)c1)CC2			
5.7	64.3	NS(=O)(=O)Oc1ccc2c(c1)CN(C(=O)c1ccc(N(CCCO)Cc3ccccc3)cc1)CC2			
10	31	CCN(Cc1ccccc1)Cc1ccc(S(=O)(=O)N2CCc3ccc(OS(N)(=O)=O)cc3C2)cc1			
0	12.6	CN1CCN(c2cccc(C(=O)N3CCc4ccc(OS(N)(=O)=O)cc4C3)c2)CC1			
32.3	75.9	CC(C)CCN(CCC(C)C)c1cccc(C(=O)N2CCc3ccc(OS(N)(=O)=O)cc3C2)c1			
10.9	50.6	NS(=O)(=O)Oc1ccc2c(c1)CN(C(=O)c1ccc(N3CCOCC3)cc1)CC2			

inhibition [1] [%]	inhibition [2] [%]	SMILES	Activity [3] [%]	Activity [4] [%]	Activity [5] [%]
90.8	98.2	NS(=O)(=O)Oc1ccc2c(c1)CN(C(=O)c1ccc(N(Cc3ccccc3)Cc3ccco3)cc1)CC2			
47	86.6	CCN(Cc1ccncc1)c1ccc(C(=O)N2CCc3ccc(OS(N)(=O)=O)cc3C2)cc1			
27.9	78	NS(=O)(=O)Oc1ccc2c(c1)CN(C(=O)c1ccc(N(CCO)Cc3ccccc3)cc1)CC2			
69.1	91.2	CCN(Cc1ccc(F)cc1)c1ccc(C(=O)N2CCc3ccc(OS(N)(=O)=O)cc3C2)cc1			
6.5	19.9	CCN(Cc1ccccn1)c1cccc(C(=O)N2CCc3ccc(OS(N)(=O)=O)cc3C2)c1			
17.4	40.7	CN(CCCN1CCCCC1)c1ccc(C(=O)N2CCc3ccc(OS(N)(=O)=O)cc3C2)cc1			
42.5	87.7	CCN(Cc1ccccn1)c1ccc(C(=O)N2CCc3ccc(OS(N)(=O)=O)cc3C2)cc1			
78.2	95.9	CCN(Cc1ccc(Br)cc1)c1ccc(C(=O)N2CCc3ccc(OS(N)(=O)=O)cc3C2)cc1			
10.9	66.5	CCN(Cc1ccc(F)cc1)c1cccc(C(=O)N2CCc3ccc(OS(N)(=O)=O)cc3C2)c1			
0	17.1	CN(C)CCN(CCN(C)C)c1cccc(C(=O)N2CCc3ccc(OS(N)(=O)=O)cc3C2)c1			
32.3	80.2	NS(=O)(=O)Oc1ccc2c(c1)CN(C(=O)c1ccc(N3CCSCC3)cc1)CC2			
1.6	24.4	NS(=O)(=O)Oc1ccc2c(c1)CN(C(=O)c1cccc(N3CCN(c4ncccn4)CC3)c1)CC2			
56	83	NS(=O)(=O)Oc1ccc2c(c1)CN(C(=O)c1ccc(N3CCc4ccccc4C3)cc1)CC2			
11.5	38.3	NS(=O)(=O)Oc1ccc2c(c1)CN(C(=O)c1ccc(N3CCCCC3)cc1)CC2			
16.2	61.6	CN(C)CCCN(Cc1ccccc1)c1ccc(C(=O)N2CCc3ccc(OS(N)(=O)=O)cc3C2)cc1			
20.8	75.8	NS(=O)(=O)Oc1ccc2c(c1)CN(C(=O)c1ccc(N3CCN(Cc4ccccc4)CC3)cc1)CC2			
25.8	37.3	NS(=O)(=O)Oc1ccc2c(c1)CN(C(=O)c1cccc(N(CCCO)Cc3ccccc3)c1)CC2			
1.4	41.9	NS(=O)(=O)Oc1ccc2c(c1)CN(C(=O)c1cccc(N3CCC(Cc4ccccc4)CC3)c1)CC2			
8.5	53.7	NS(=O)(=O)Oc1ccc2c(c1)CN(C(=O)c1ccc(N3CCC(N4CCCCC4)CC3)cc1)CC2			
24.2	84.5	CCN(Cc1ccc(Br)cc1)c1cccc(C(=O)N2CCc3ccc(OS(N)(=O)=O)cc3C2)c1			
